Consider 25 compounds from US8993752B2, “Neprilysin inhibitors” (Theravance Biopharma R&D IP, LLC, priority 2011, dated 2015).

T1 sequence (P08473 whole entry): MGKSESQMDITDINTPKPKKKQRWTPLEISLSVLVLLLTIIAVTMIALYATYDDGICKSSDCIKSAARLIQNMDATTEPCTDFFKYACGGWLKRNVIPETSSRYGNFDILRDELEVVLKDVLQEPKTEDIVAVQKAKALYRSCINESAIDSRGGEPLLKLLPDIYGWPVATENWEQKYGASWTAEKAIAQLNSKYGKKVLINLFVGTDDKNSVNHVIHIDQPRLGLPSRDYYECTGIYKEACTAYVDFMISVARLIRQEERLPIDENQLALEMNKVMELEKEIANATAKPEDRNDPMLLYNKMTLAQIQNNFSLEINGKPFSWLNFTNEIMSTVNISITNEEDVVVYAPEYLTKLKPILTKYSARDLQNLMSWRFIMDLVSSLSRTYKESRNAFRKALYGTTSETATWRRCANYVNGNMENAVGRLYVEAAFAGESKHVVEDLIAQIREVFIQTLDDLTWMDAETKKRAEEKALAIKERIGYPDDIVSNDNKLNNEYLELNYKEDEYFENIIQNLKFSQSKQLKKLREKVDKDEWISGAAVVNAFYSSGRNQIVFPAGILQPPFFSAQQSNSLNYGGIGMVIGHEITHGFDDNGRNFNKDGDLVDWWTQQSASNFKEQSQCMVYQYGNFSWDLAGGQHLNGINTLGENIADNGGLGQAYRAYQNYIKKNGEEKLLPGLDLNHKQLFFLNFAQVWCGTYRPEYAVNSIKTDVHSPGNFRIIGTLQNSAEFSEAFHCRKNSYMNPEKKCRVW

This test concerns the target T1, human NEP (Homo sapiens, UniProt P08473).
T1 construct: purchased R&D Systems, Minneapolis, Minn; 1182-ZN
The test is described as follows: In vitro enzyme inhibition assay at human NEP (fluorogenic peptide substrate). The format is biochemical. As to conditions: recombinant human NEP; substrate Mca-D-Arg-Arg-Leu-Dap-(Dnp)-OH 10 μM; 37° C.; values given as ranges; read-out: pKi values at human NEP (converted). The procedure:
The inhibitory activities of compounds at human and rat neprilysin (EC 3.4.24.11; NEP) and human angiotensin converting enzyme (ACE) were determined using in vitro assays as described below.
Recombinant human NEP and recombinant human ACE were obtained commercially (R&D Systems, Minneapolis, Minn., catalog numbers 1182-ZN and 929-ZN, respectively). The fluorogenic peptide substrate Mca-D-Arg-Arg-Leu-Dap-(Dnp)-OH (Medeiros et al. (1997) Braz. J. Med. Biol. Res. 30:1157-62; Anaspec, San Jose, Calif.) and Abz-Phe-Arg-Lys(Dnp)-Pro-OH (Araujo et al. (2000) Biochemistry 39:8519-8525; Bachem, Torrance, Calif.) were used in the NEP and ACE assays respectively.
The assays were performed in 384-well white opaque plates at 37° C. using the fluorogenic peptide substrates at a concentration of 10 μM in Assay Buffer (NEP: 50 mM HEPES, pH 7.5, 100 mM NaCl, 0.01% polyethylene glycol sorbitan monolaurate (Tween-20), 10 μM ZnSO4; ACE: 50 mM HEPES, pH 7.5, 100 mM NaCl, 0.01% Tween-20, 1 μM ZnSO4).
Test compounds were assayed over the range of concentrations from 10 μM to 20 pM. Test compounds were added to the enzymes and incubated for 30 minute at 37° C. prior to initiating the reaction by the addition of substrate. Reactions were terminated after 20 minutes of incubation at 37° C. by the addition of glacial acetic acid to a final concentration of 3.6% (v/v).
Plates were read on a fluorometer with excitation and emission wavelengths set to 320 nm and 405 nm, respectively Inhibition constants were obtained by nonlinear regression of the data using the equation (GraphPad Software, Inc., San Diego, Calif.): v=v0/[1+(I/K′)] where v is the reaction rate, v0 is the uninhibited reaction rate, I is the inhibitor concentration and K′ is the apparent inhibition constant.
Compounds of the invention were tested in this assay and found to have pKi values at human NEP as follows.
For `O=C(N[C@H](Cc1ccccc1Cl)[C@@H](O)C(=O)O)c1cc(C(=O)O)n(Cc2ccc(Cl)c(C(F)(F)F)c2)n1` [Example 2-18, 5-[(1R,2R)-2-Carboxy-1-(2-chloro-benzyl)-2-hydroxy-ethylcarbamoyl]-2-(4-chloro-3-trifluoromethyl-benzyl)-2H-pyrazole-3-carboxylic acid], the Ki was 12.6 to 100 nM.
In the case of `O=C(N[C@H](Cc1ccccc1Cl)[C@@H](O)C(=O)O)c1cc(C(=O)O)n(Cc2ccccc2Cl)n1` [Example 2-19, 5-[(1R,2R)-2-Carboxy-1-(2-chloro-benzyl)-2-hydroxy-ethylcarbamoyl]-2-(2-chloro-benzyl)-2H-pyrazole-3-carboxylic acid], the Ki is 1.26 to 10 nM.
Consider `O=C(N[C@H](Cc1ccccc1Cl)[C@@H](O)C(=O)O)c1cc(C(=O)O)n(Cc2ccc(F)cc2)n1` [Example 2-20, 5-[(1R,2R)-2-Carboxy-1-(2-chloro-benzyl)-2-hydroxy-ethylcarbamoyl]-2-(4-fluoro-benzyl)-2H-pyrazole-3-carboxylic acid], for which the Ki was 1.26 to 10 nM.
Consider `COc1ccc(Cn2nc(C(=O)N[C@H](Cc3ccccc3Cl)[C@@H](O)C(=O)O)cc2C(=O)O)cc1` [Example 2-21, 5-[(1R,2R)-2-Carboxy-1-(2-chloro-benzyl)-2-hydroxy-ethylcarbamoyl]-2-(4-methoxy-benzyl)-2H-pyrazole-3-carboxylic acid], for which the Ki was not above 1 nM.
`O=C(N[C@H](Cc1ccccc1Cl)[C@@H](O)C(=O)O)c1cc(C(=O)O)n(Cc2ccc(C(F)(F)F)cc2)n1` [Example 2-25, 5-[(1R,2R)-2-Carboxy-1-(2-chloro-benzyl)-2-hydroxy-ethylcarbamoyl]-2-(4-trifluoromethyl-benzyl)-2H-pyrazole-3-carboxylic acid]: the Ki was 1.26 to 10 nM.
The figure for `O=C(N[C@H](Cc1ccccc1Cl)[C@@H](O)C(=O)O)c1cc(C(=O)O)n(Cc2ccc(OC(F)F)cc2)n1` [Example 2-26, 5-[(1R,2R)-2-Carboxy-1-(2-chloro-benzyl)-2-hydroxy-ethylcarbamoyl]-2-(4-difluoromethoxy-benzyl)-2H-pyrazole-3-carboxylic acid] is not above 1 nM.
With `COc1ccc(Cn2nc(C(=O)N[C@H](Cc3ccccc3Cl)[C@@H](O)C(=O)O)cc2C(=O)O)c(F)c1F` [Example 2-27, 5-[(1R,2R)-2-Carboxy-1-(2-chloro-benzyl)-2-hydroxy-ethylcarbamoyl]-2-(2,3-difluoro-4-methoxy-benzyl)-2H-pyrazole-3-carboxylic acid] the figure was not above 1 nM; with `COc1cc(F)c(Cn2nc(C(=O)N[C@H](Cc3ccccc3Cl)[C@@H](O)C(=O)O)cc2C(=O)O)c(F)c1` [Example 2-32, 5-[(1R,2R)-2-Carboxy-1-(2-chloro-benzyl)-2-hydroxy-ethylcarbamoyl]-2-(2,6-difluoro-4-methoxy-benzyl)-2H-pyrazole-3-carboxylic acid], not above 1 nM; with `O=C(N[C@H](Cc1ccccc1Cl)[C@@H](O)C(=O)O)c1cc(C(=O)O)n(Cc2ccc(OC(F)(F)F)cc2)n1` [Example 2-33, 5-[(1R,2R)-2-Carboxy-1-(2-chloro-benzyl)-2-hydroxy-ethylcarbamoyl]-2-(4-trifluoromethoxy-benzyl)-2H-pyrazole-3-carboxylic acid], not above 1 nM.
Take `COc1c(F)cc(Cn2nc(C(=O)N[C@H](Cc3ccccc3Cl)[C@@H](O)C(=O)O)cc2C(=O)O)cc1F` [Example 2-34, 5-[(1R,2R)-2-Carboxy-1-(2-chloro-benzyl)-2-hydroxy-ethylcarbamoyl]-2-(3,5-difluoro-4-methoxy-benzyl)-2H-pyrazole-3-carboxylic acid]: the Ki is not above 1 nM.
The figure for `COc1c(F)c(F)c(Cn2nc(C(=O)N[C@H](Cc3ccccc3Cl)[C@@H](O)C(=O)O)cc2C(=O)O)c(F)c1F` [Example 2-35, 5-[(1R,2R)-2-Carboxy-1-(2-chloro-benzyl)-2-hydroxy-ethylcarbamoyl]-2-(2,3,5,6-tetrafluoro-4-methoxy-benzyl)-2H-pyrazole-3-carboxylic acid] is not above 1 nM; for `COc1ccc(Cn2nc(C(=O)N[C@H](Cc3ccccc3Cl)[C@@H](O)C(=O)O)cc2C(=O)O)cc1F` [Example 2-37, 5-[(1R,2R)-2-Carboxy-1-(2-chloro-benzyl)-2-hydroxy-ethylcarbamoyl]-2-(3-fluoro-4-methoxy-benzyl)-2H-pyrazole-3-carboxylic acid] it is 1.26 to 10 nM.
With `O=C(N[C@H](Cc1ccccc1Cl)[C@@H](O)C(=O)O)c1cc(C(=O)O)n(Cc2ccc(OC(F)(F)F)c(F)c2)n1` [Example 2-39, 5-[(1R,2R)-2-Carboxy-1-(2-chloro-benzyl)-2-hydroxy-ethylcarbamoyl]-2-(3-fluoro-4-trifluoromethoxy-benzyl)-2H-pyrazole-3-carboxylic acid] the figure was not above 1 nM; with `Cc1ccc(Cn2nc(C(=O)N[C@H](Cc3ccccc3Cl)[C@@H](O)C(=O)O)cc2C(=O)O)cc1` [Example 2-40, 5-[(1R,2R)-2-Carboxy-1-(2-chloro-benzyl)-2-hydroxy-ethylcarbamoyl]-2-(4-methyl-benzyl)-2H-pyrazole-3-carboxylic acid], 1.26 to 10 nM; with `O=C(N[C@H](Cc1ccccc1Cl)[C@@H](O)C(=O)O)c1cc(C(=O)O)n(Cc2ccc(Br)cc2)n1` [Example 2-41, 2-(4-Bromo-benzyl)-5-[(1R,2R)-2-carboxy-1-(2-chloro-benzyl)-2-hydroxy-ethylcarbamoyl]-2H-pyrazole-3-carboxylic acid], not above 1 nM.
The figure for `O=C(N[C@H](Cc1ccccc1Cl)[C@@H](O)C(=O)O)c1cc(C(=O)O)n(Cc2c(F)cc(F)cc2F)n1` [Example 2-42, 5-[(1R,2R)-2-Carboxy-1-(2-chloro-benzyl)-2-hydroxy-ethylcarbamoyl]-2-(2,4,6-trifluoro-benzyl)-2H-pyrazole-3-carboxylic acid] is 1.26 to 10 nM.
`Cc1cccc(C)c1Cn1nc(C(=O)N[C@H](Cc2ccccc2Cl)[C@@H](O)C(=O)O)cc1C(=O)O` [Example 2-43, 5-[(1R,2R)-2-Carboxy-1-(2-chloro-benzyl)-2-hydroxy-ethylcarbamoyl]-2-(2,6-dimethyl-benzyl)-2H-pyrazole-3-carboxylic acid]: the Ki was 1.26 to 10 nM.
As to `O=C(N[C@H](Cc1ccccc1Cl)[C@@H](O)C(=O)O)c1cc(C(=O)O)n(Cc2c(F)cccc2F)n1` [Example 2-44, 5-[(1R,2R)-2-Carboxy-1-(2-chloro-benzyl)-2-hydroxy-ethylcarbamoyl]-2-(2,6-difluoro-benzyl)-2H-pyrazole-3-carboxylic acid], the Ki is 1.26 to 10 nM.
With `O=C(N[C@H](Cc1ccccc1Cl)[C@@H](O)C(=O)O)c1cc(C(=O)O)[nH]n1` [Example 2-45, 5-[(1R,2R)-2-Carboxy-1-(2-chloro-benzyl)-2-hydroxy-ethylcarbamoyl]-2H-pyrazole-3-carboxylic acid] the figure was 1.26 to 10 nM; with `CC(=O)Nc1cccc(-c2cc(C(=O)N[C@H](Cc3ccccc3Cl)[C@@H](O)C(=O)O)n[nH]2)c1` [Example 2-47, (2R,3R)-3-{[5-(3-Acetylamino-phenyl)-1H-pyrazole-3-carbonyl]-amino}-4-(2-chloro-phenyl)-2-hydroxy-butyric acid], 12.6 to 100 nM; with `O=C(N[C@H](Cc1ccccc1Cl)[C@@H](O)C(=O)O)c1cc(-c2ccccc2Cl)[nH]n1` [Example 2-48, (2R,3R)-4-(2-Chloro-phenyl)-3-{[5-(2-chloro-phenyl)-1H-pyrazole-3-carbonyl]-amino}-2-hydroxy-butyric acid], 1.26 to 10 nM.
The figure for `O=C(N[C@H](Cc1ccccc1Cl)[C@@H](O)C(=O)O)c1cc(-c2ccc(-c3ccccc3)cc2)[nH]n1` [Example 2-49, (2R,3R)-3-[(5-Biphenyl-4-yl-1H-pyrazole-3-carbonyl)-amino]-4-(2-chloro-phenyl)-2-hydroxy-butyric acid] is 12.6 to 100 nM; for `O=C(N[C@H](Cc1ccccc1Cl)[C@@H](O)C(=O)O)c1cc(-c2ccccc2O)[nH]n1` [Example 2-50, (2R,3R)-4-(2-Chloro-phenyl)-2-hydroxy-3-{[5-(2-hydroxy-phenyl)-1H-pyrazole-3-carbonyl]-amino}-butyric acid] it is 12.6 to 100 nM.
As for `O=C(N[C@H](Cc1ccccc1Cl)[C@@H](O)C(=O)O)c1cc(-c2cnccn2)[nH]n1` [Example 2-51, (2R,3R)-4-(2-Chloro-phenyl)-2-hydroxy-3-[(5-pyrazin-2-yl-1H-pyrazole-3-carbonyl)-amino]-butyric acid], the Ki was 12.6 to 100 nM.
For the compound `O=C(N[C@H](Cc1ccccc1Cl)[C@@H](O)C(=O)O)c1cc(-c2ccco2)[nH]n1` [Example 2-52, (2R,3R)-4-(2-Chloro-phenyl)-3-[(5-furan-2-yl-1H-pyrazole-3-carbonyl)-amino]-2-hydroxy-butyric acid], the Ki was 12.6 to 100 nM.
